The test system of experiment [1] is CREB. The experiment can be described thus: CREB phosphorylation in U2OS cells. The class given is cell-based.
Experiment [2] concerns Per2::Luc U2OS cells. In words: Per2::Luc cell based circadian assay. The settings on record: Per2::Luc U2OS cells, dose response. The method, then:
U2OS cells stably transfected with a Per2::Luc reporter were cultured in DMEM supplemented with 10% FBS. For siRNA- and drug-based experiments, cells were seeded at 5,000 per well into white 384 well plates and transfected with 20 nM siRNA the next day. 2 days later, the cells were synchronized with 100 nM dexamethasone and the medium was replaced with phenol-red free DMEM supplemented with B-27 and 100 µM luciferin potassium salt, requisite drugs formulated in DMSO as a 1000× stock was added, and then sealed. Per2::Luc rhythms were recorded from a BMG Labtech Fluostar Omega plate reader maintained at 36° C. and readings taken from each well every hour. Data were then analysed using either Multicycle or Brass rhythm analysis software.
Period2::Luciferase (Per2::Luc) stable U2OS transfects were cultured, as described above. A Greiner Bio-One 384 Well Plate (Polystyrene, F-bottom), was then seeded at 6000 cells per 50 μl well. Following a 24 hour period, the cells were treated with 0.1% dexamethasone, a glucocorticoid hormone analogue known to reset intracellular circadian rhythms, for 1 hour. Subsequently, the dexamethasone-containing medium was removed, the cells were washed with PBS and luciferin and test drug containing medium was added. The cells were then assayed for luminescence over a period of 96 hours in the BMG FLUOstar OPTIMA Microplate Reader to observe the periodicity and amplitude of the luminescence values.

The test system of experiment [3] is STAR-PROM plasmid library. The experiment can be described thus: STAR-PROM transcription factor screening in U2OS cells. The class given is cell-based. The procedure: This was conducted as previously reported in Gerber et al., Cell. […] Briefly, U2OS cells were cultured in 6-well plates and transfected with 1 ug of the STAR-PROM plasmid library (library structure as in above reference). RNA was extracted at set time points and sequenced for the barcoded luciferase constructs and analysed with Galaxy (https://use.galaxy.org).

The test system of experiment [4] is Per2::Luc SCN slice cultures. In words: Per2::Luc SCN slice culture. The class given is cell-based, mice. The settings on record: isolated Per2::Luc SCN slice cultures. The source says: (§1) SCN Tissue Collection: Animals were housed under a 12:12 LD cycle for 2 weeks with food and water ad libitum. Animals then received either a drug injection with a alteration in the light dark cycle as described in the experiment and at set points following drug administration were sacrificed by cervical dislocation. Sham-treated mice not given a light pulse were dissected at each time point. Brains were removed and placed into a brain matrix (Kent Scientific, Torrington CT, USA). Per2::Luc transgenic animals (as reported in Yoo et al, Proc Natl Acad Sci USA. 2004 Apr. 13; 101(15):5339-46) were obtained from Prof Joseph Takahashi, Northwestern University.
For SCN slice culture: The brain was gently cut into a cube preserving the integrity of the SCN and cut into […] slices in ice-cold oxygenated Hanks Balanced Salt Solution containing 100 nM MK801 (Sigma-Aldrich). The SCN was microdissected and transferred to membrane filter (Millicell Cell Culture Insert, 30 mm, hydrophilic PTFE, 0.4 μm, Millipore) and cultured in 300 uL DMEM prepared as detailed in the Per2::Luc Assay.

Experiment [5] concerns Per1. The experiment can be described thus: Per1 mRNA within the SCN after intraperitoneal injection. It counts as in vivo, mice. The following applies: 4 h after intraperitoneal injection.
From the text: as §1, with “University. […]” for “University.”
Total RNA was extracted using the microRNeasy column method (Qiagen, Hilden, Germany). Quality and quantity of RNA were measured using an Agilent Bioanalyzer and a Nanodrop1000 (Thermo Fisher Scientific, Waltham, MA USA), respectively.
RNA samples were prepared as described for microarray hybridisation. cDNA was synthesized with a qScript cDNA synthesis kit (Quanta Biosciences, Gaithersburg, MD), and quantitative PCR (qPCR) was conducted with Sybr green I and an SDS7700 thermal cycler (Applied Biosystems, Foster City, CA). Relative quantification of transcript levels was done as described previously (Peirson et al., Nucleic Acids Res. 2003 Jul. 15; 31(14):e73.). […]

Structures are written as SMILES.

On to `Nc1nc(-c2ccccc2)c2c(n1)-c1cc(OCCN3CCOCC3)ccc1C2=O` [JNJ40255293, 2-amino-8-[2-(4-morpholinyl)ethoxy]-4-phenyl-5H-indeno[1,2-d]pyrimidin-5-one], for which the CREB phosphorylation result in experiment [1] was “no changes in CREB phosphorylation”. The circadian period length entry in experiment [2] is “increased circadian period length in a dose dependent manner”. The “clones with significantly increased reporter signal” value in experiment [3] (BC-STARPROM, 30 uM) is 8 clones. Further, in experiment [3] (isolated clone3), the “response of clone3 reporter” value was “responded”. In experiment [4], the period length entry was “increased period length”. For the same compound, the “Per1 mRNA levels within the SCN” value in experiment [5] was “increase”.

Source of the values: patent publication US11931374B2, “Adenosine receptor modulators for the treatment of circadian rhythm disorders” (OXFORD UNIVERSITY INNOVATION LIMITED, priority 2016, dated 2024).
